Laboratory results taken from paper PMC8931250, “A SURF4-to-proteoglycan relay mechanism that mediates the sorting and secretion of a tagged variant of sonic hedgehog” (Proceedings of the National Academy of Sciences of the …, 2022).
Ends that are not written are not given here.

How the values were obtained:
[1] = tested on: packaging of ShhN-HA into transport vesicles; assay: In vitro vesicle formation assay, packaging of ShhN-HA; format: cell-based
Method: (§1) To analyze whether the CW motif is important for the packaging of ShhN into COPII vesicles, we reconstituted vesicular release of ShhN in HEK293T cells (Fig. 1T). HEK293T cells transfected with 3xHA-tagged ShhN (ShhN-HA) were permeabilized by digitonin. After permeabilization, the semi-intact cells were washed with buffer to remove endogenous cytosolic proteins. Semi-intact cells were then incubated at 30 °C with rat liver cytosol (RLC), GTP, and an ATP regeneration system (ATPrS) in the presence or absence of a GTP hydrolysis defective mutant form of Sar1A, Sar1A (H79G). The vesicles released were then isolated by centrifugation and analyzed by immunoblotting (Fig. 1T). […] Deleting residues 33 to 49 (Fig. 1V) or deleting the CW motif (residues 33 to 39) in ShhN caused a significant reduction in the efficiency of packaging of ShhN into vesicles (Fig. 1W and quantification in Fig. 1X), while the abundance of ERGIC53 in transport vesicles was unchanged (Fig. 1Y). […]
(§2) reaction mixture for 1 h at 4 °C. The beads were washed four times with 500 µ l of HK buffer and analyzed […]
(§3) Label-free quantitative mass spectrometry
(§4) Mass spectrometry was performed to identify the proteins involved in Shh secretion. […] Finally, the resulted peptides were analyzed by Mass Spectrometer. The tandem mass spectra were then subject to protein identification and label-free quantification by Proteome Discoverer. […]

[2] = tested on: packaging of ERGIC53 into transport vesicles; assay: In vitro vesicle formation assay, packaging of ERGIC53; format: cell-based; settings: semi-intact HEK293T cells, rat liver cytosol, GTP, ATPrS, 0.5 µg Sar1A (H79G)
Method: as §1, §2, §3, §4

[3] = tested on: COPII-dependent ER export; settings: cited from earlier work
Method: To analyze whether the CW motif is important for the packaging of ShhN into COPII vesicles, we reconstituted vesicular release of ShhN in HEK293T cells (Fig. 1T). HEK293T cells transfected with 3xHA-tagged ShhN (ShhN-HA) were permeabilized by digitonin. After permeabilization, the semi-intact cells were washed with buffer to remove endogenous cytosolic proteins. Semi-intact cells were then incubated at 30 °C with rat liver cytosol (RLC), GTP, and an ATP regeneration system (ATPrS) in the presence or absence of a GTP hydrolysis defective mutant form of Sar1A, Sar1A (H79G). The vesicles released ...

GST-SURF4^49-60 = target: T1, GST-SURF4^49-60 (Homo sapiens, UniProt O15260); assay: Isothermal titration calorimetry, CW peptide vs GST-SURF4(49-60); format: binding; settings: ITC (PEAQ-ITC); 500 µM CW peptide into 50 µM GST-SURF4 (49-60); 10 mM PBS, 0.5 mM HEPES, 6.3 mM sorbitol, 1.75 mM KOAc, 25 µM Mg(OAc)2, 25 µM BSA, 0.003% Triton, pH 7.2; one set of site model; read-out: Kd of CW peptides for GST-SURF4^49-60
T1 construct: SURF4 (49-60) in the same buffer was in the calorimetric cell; made in house; host or cells: Escherichia coli
Description: To measure a direct interaction, we immobilized the first luminal loop of SURF4 (SEQRDYIDTTWNC, referred to as SURF4 luminal peptides) on beads and then performed pull down analysis using purified GST and Shh^25-49-GST as prey (Fig. 3H). […] As an additional test, we performed pull down analysis using peptides corresponding to the CW motif (KRRHPKKC, referred to as CW peptides) as bait and purified GST-SURF4^49-60 as prey (Fig. 3J). […] We then immobilized peptides corresponding to the first intracellular loop of Frizzled6 (VRRFRYPERPC, referred to as RRFR) ([27]) on beads.
The samples were centrifuged at 55,000 rpm in a TLS55 rotor in a Beckman ultracentrifuge for 2 hr at 4 °C.
After centrifugation, fractions were collected from the top to the bottom of the tube, and the top fraction was analyzed by SDS-PAGE and immunoblotting.
Isothermal titration calorimetry (ITC)
We utilized a commercial isothermal titration calorimeter (PEAQ-ITC system, MicroCal, Malvern Panalytical, United Kingdom) to perform titration experiments. In these experiments, a 500 µM solution of CW peptide in a diluted binding buffer (10 mM PBS, 0.5 mM HEPES, 6.3 mM sorbitol, 1.75 mM KOAc, 25 µM Mg(OAc)2 , 25 µM BSA, 0.003% Triton, pH 7.2) was loaded into the syringe of the ITC instrument and a 50 µM solution of GST -SURF4 (49-60) in the same buffer was in the calorimetric cell. […]

Kd (GST-SURF4^49-60) [nM]	Substance	efficiency of packaging of ShhN-HA into transport vesicles ([1]; HEK293Trex cells, SAR1A (H79G))	efficiency of packaging of ShhN-HA into transport vesicles ([1]; semi-intact HEK293T cells, rat liver cytosol, GTP, ATPrS, 0.5 µg Sar1A (H79G))	efficiency of packaging of ERGIC53 into transport vesicles [2]	COPII-dependent ER export [3]	membrane association of SEC23A/B [3]	vesicular capture of SEC22B and ERGIC53 [3]	vesicular release of TGN46 [3]
	Sar1A (H79G): GTP hydrolysis defective mutant form of Sar1A	reduced the efficiency of packaging	greatly reduced	greatly reduced	inhibits COPII-dependent ER export	enhances membrane association of SEC23A/B	abolishes the vesicular capture	does not affect the vesicular release
2350 ± 90	KRRHPKKC [CW peptides]							
